Target: TRPM4 (Homo sapiens, UniProt Q8TD43)
Assay: whole-cell patch clamp of endogenous TRPM4 currents in HCT116 cells
Assay type: cell-based

Sequence of TRPM4 (Q8TD43 whole entry): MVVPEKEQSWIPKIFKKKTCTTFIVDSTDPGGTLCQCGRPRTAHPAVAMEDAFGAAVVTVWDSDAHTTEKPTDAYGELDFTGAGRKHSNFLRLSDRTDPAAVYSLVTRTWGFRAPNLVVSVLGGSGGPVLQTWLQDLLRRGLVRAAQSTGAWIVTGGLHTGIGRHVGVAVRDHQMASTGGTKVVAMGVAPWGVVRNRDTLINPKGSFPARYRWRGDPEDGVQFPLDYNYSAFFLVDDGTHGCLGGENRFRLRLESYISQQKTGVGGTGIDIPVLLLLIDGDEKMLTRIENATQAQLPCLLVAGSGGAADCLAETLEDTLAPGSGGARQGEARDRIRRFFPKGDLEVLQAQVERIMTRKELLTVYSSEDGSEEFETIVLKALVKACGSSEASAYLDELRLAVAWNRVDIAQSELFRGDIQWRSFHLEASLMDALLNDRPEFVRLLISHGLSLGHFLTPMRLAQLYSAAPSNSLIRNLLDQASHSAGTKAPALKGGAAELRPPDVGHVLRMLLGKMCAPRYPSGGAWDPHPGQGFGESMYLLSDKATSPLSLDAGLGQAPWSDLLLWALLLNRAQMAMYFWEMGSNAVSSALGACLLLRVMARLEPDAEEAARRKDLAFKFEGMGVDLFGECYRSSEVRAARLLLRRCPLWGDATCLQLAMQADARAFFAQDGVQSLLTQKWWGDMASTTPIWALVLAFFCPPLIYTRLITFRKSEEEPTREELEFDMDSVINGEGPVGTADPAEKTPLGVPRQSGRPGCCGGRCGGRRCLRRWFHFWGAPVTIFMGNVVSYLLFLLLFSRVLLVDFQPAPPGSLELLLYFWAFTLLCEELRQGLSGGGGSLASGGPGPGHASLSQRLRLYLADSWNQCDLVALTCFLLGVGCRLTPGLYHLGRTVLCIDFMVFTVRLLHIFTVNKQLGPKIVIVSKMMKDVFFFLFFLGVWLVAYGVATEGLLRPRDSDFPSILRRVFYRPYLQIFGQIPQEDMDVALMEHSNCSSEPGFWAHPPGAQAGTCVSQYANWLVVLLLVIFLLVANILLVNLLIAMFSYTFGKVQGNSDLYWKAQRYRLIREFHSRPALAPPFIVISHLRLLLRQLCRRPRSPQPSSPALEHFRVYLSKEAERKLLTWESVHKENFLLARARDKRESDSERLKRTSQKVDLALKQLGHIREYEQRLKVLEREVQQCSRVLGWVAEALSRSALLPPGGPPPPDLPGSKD

Cc1cc(Cl)ccc1OC(C)C(=O)Nc1cc(Cl)ccc1C(=O)O (stereo not shown) [LBA, 4-chloro-2-(2-(4-chloro-2-methylphenoxy)propanamido) benzoic acid]
IC50: 1840 nM

Source: publication PMC8582472, “Investigation of Novel Small Molecular TRPM4 Inhibitors in Colorectal Cancer Cells” (Cancers, 2021)
